Converted amounts (≈) assume the structure as drawn. “Also recorded” adds a separate entry of the source.

The term Solubility denotes the concentration that dissolves in the medium under given conditions. By Cmax is commonly meant the peak of the concentration-time curve.

The nature of data set [1]: Rat pharmacokinetics after single oral administration. In kind it is in vivo, SD rats. The note with it: for In vivo exposure level (in words): compared with free base crystal form I.
The nature of data set [2]: Dog pharmacokinetics after single oral administration. The note with it: compared with free base crystal form I. In kind it is in vivo, dogs.
Data set [3] in a line: Solid state stability study, 7 days. As to conditions: for Purity: 10080 min; for Crystal stability (in words): 60 °C/closed and 40 °C/75% RH; for Initial purity: stability baseline; for Solid-state stability (in words): summary; for HPLC purity (area %) at 168 h: solid state. In kind it is physicochemical. The method, then: (§1) HPLC analysis was performed using Agilent HPLC 1260 series instruments.

Data set [4] is described as follows: Solubility test in biological media and water at 37 °C (HPLC). In kind it is physicochemical. As to conditions: for Solubility: calculated using free base. The method, then:
as §1
The solubility of salt was calculated using free base.

The nature of data set [5]: Pharmacokinetic studies in animals, summary statements. In kind it is in vivo. As to conditions: for In vivo exposure levels in animals (in words): summary; for Absorption (in words) / Bioavailability in vivo (in words) / Blood drug concentration distribution (in words) / Stability in vivo (in words): pharmacokinetic studies.
Data set [6] is described as follows: Evaluation of amorphous free base: slurry in solvent, 2 days. In kind it is physicochemical. The note with it: for Resulting crystal form: room temperature, 2 days. The procedure:
100 mg of the amorphous free base sample obtained in the present invention was weighed and a solvent was added to form a suspension. The mixture was stirred at room temperature for 2 days, and the results are as follows: […]

Data set [7] in a line: Rough solubility of free base crystal form I in solvents by visual inspection. In kind it is physicochemical. As to conditions: room temperature.
[8] abbreviates: FaSSIF (pH = 6.49), 0.5 h, 37 °C, LOQ ~1.0 μg/mL.
Where [9] appears, read: FaSSIF (pH = 6.49), solution at 0.5 h.
Where [10] appears, read: FaSSIF (pH = 6.49), solution at 2.0 h.
[11] abbreviates: FaSSIF (pH = 6.49), solution at 24 h.
Where [12] appears, read: FeSSIF (pH = 5.00), solution at 0.5 h.
Setting [13] is: FeSSIF (pH = 5.00), solution at 2.0 h.
Where [14] appears, read: FeSSIF (pH = 5.00), solution at 24 h.
[15] abbreviates: SGF (pH = 1.19), solution at 0.5 h.
[16] abbreviates: SGF (pH = 1.19), solution at 2.0 h.
Where [17] appears, read: SGF (pH = 1.19), solution at 24 h.
[18] abbreviates: Water (pH = 5.45), 0.5 h/2 h/24 h, 37 °C, LOQ ~1.0 μg/mL.
[19] abbreviates: Water (pH = 5.45), solution at 0.5 h.
Setting [20] is: Water (pH = 5.45), solution at 2.0 h.
The mark [21] stands for this setting: Water (pH = 5.45), solution at 24 h.
Where [22] appears, read: gavage, 10 mpk, 0.5% MC + 1% tween 80, plasma, 10 mg/kg.

Turning to `CCn1ncc2c(Nc3cc(C)[nH]n3)nc([C@H]3CC[C@](OC)(C(=O)N[C@@H](C)c4cnc(-n5cc(F)cn5)cn4)CC3)nc21` [Fumarate crystal form I], the “In vivo exposure level (in words)” value in data set [1] and in data set [2] was “higher than those of free base crystal form I” in each case. For the same molecule, in data set [3] (40 °C/75% RH, 7 days), the “Chemical purity change (in words)” value was “slightly decreases”. Besides, the XRPD result in data set [3] (40 °C/75% RH, 7 days) is reported as “Unchanged”; in data set [3] (60 °C/Closed, 7 days), “Unchanged”. Also, the Purity in data set [3] (40 °C/75% RH, 7 days) is reported as 97.914 Area %; in data set [3] (60 °C/Closed, 7 days), 98.119 Area %. Also, in data set [3] (7 days), the “Crystal stability (in words)” value is “good”. The “Stability (in words)” value in data set [3] (closed high temperature condition (60 °C), 7 days) is on record as “good”. In data set [3], this molecule came in with an Initial purity of 98.062 Area %. For the same molecule, the “Solid-state stability (in words)” value in data set [3] is “good solid-state stability”. Moreover, the values for the Solubility result in data set [4] (setting [8]) and in data set [4] (setting [18]) were “<LOQ^1” and “<LOQ”, respectively. Further, the pH was found to be 6.48 in data set [4] (setting [9]); 6.54 in data set [4] (setting [10]); 5.91 in data set [4] (setting [11]); 5.01 in data set [4] (setting [12]); 5.03 in data set [4] (setting [13]); 4.93 in data set [4] (setting [14]). Moreover, the pH was 1.17 in data set [4] (setting [15]); 1.22 in data set [4] (setting [16]); 1.27 in data set [4] (setting [17]); 5.22 in data set [4] (setting [19]); 5.84 in data set [4] (setting [20]); 3.50 in data set [4] (setting [21]). In data set [4] (solid form after 24 h in FaSSIF (pH = 6.49)), the “XRPD (24 h)” value was “amorphous”. Further, the “In vivo exposure levels in animals (in words)” value (from here on “In vivo exposure levels”) in data set [5] is “excellent in vivo exposure levels; also recorded: higher animal exposure levels compared to the free base crystal form I”. Also, the “Absorption (in words)” value in data set [5] is listed as “easy to absorb”. The “Bioavailability in vivo (in words)” value in data set [5] is “high bioavailability”. Moreover, the “Blood drug concentration distribution (in words)” value in data set [5] is recorded as “good blood drug concentration distribution”. The “Stability in vivo (in words)” value in data set [5] is listed as “good stability in vivo”.
For `CCn1ncc2c(Nc3cc(C)[nH]n3)nc([C@H]3CC[C@](OC)(C(=O)N[C@@H](C)c4cnc(-n5cc(F)cn5)cn4)CC3)nc21` [Amorphous free base], the results for the Resulting crystal form result in data set [6] (Acetone suspension) and in data set [6] (Methanol suspension) were “form III” and “form I”, respectively. Moreover, the “Stability of amorphous sample (in words)” value in data set [6] (in the solvent) was “unstable and easily transformed into other crystal forms in the solvent”.
As for `CCn1ncc2c(Nc3cc(C)[nH]n3)nc([C@H]3CC[C@](OC)(C(=O)N[C@@H](C)c4cnc(-n5cc(F)cn5)cn4)CC3)nc21` [Free base crystal form III], the “In vivo exposure level (in words)” value in data set [1] was “higher than those of free base crystal form I”. Also, in data set [2], the “In vivo exposure level (in words)” value is reported as “higher than those of free base crystal form I”. In data set [3] (40 °C/75% RH, 7 days), the XRPD result is listed as “Unchanged” and the Purity is given as 99.253 Area %. Also, in data set [3] (60 °C/Closed, 7 days), the XRPD entry was “Unchanged” and the Purity came to 99.212 Area %. The “Crystal stability (in words)” value in data set [3] (7 days) was “good”. In data set [3], this molecule came in with an Initial purity of 99.316 Area %. In data set [5], the “In vivo exposure levels” value is “higher animal exposure levels compared to the free base crystal form I”, the “Absorption (in words)” value was “easy to absorb”, the “Bioavailability in vivo (in words)” value was “high bioavailability” and the “Blood drug concentration distribution (in words)” value is listed as “good blood drug concentration distribution”. The “Stability in vivo (in words)” value in data set [5] is “good stability in vivo”.
Take `CCn1ncc2c(Nc3cc(C)[nH]n3)nc([C@H]3CC[C@](OC)(C(=O)N[C@@H](C)c4cnc(-n5cc(F)cn5)cn4)CC3)nc21` [Malate crystal form I]: the “In vivo exposure level (in words)” value in data set [1] and in data set [2] was “higher than those of free base crystal form I” in each case. Besides, in data set [1] (setting [22]), the AUC0-last was found to be 1209.00 ng·h/mL. The AUCINF in data set [1] (setting [22]) stood at 1217.00 ng·h/mL. Moreover, the XRPD result in data set [3] (40 °C/75% RH, 7 days) is “Unchanged”; in data set [3] (60 °C/Closed, 7 days), “Unchanged”. In addition, the “Crystal stability (in words)” value in data set [3] (7 days) is listed as “good”. The Initial purity in data set [3] worked out at 98.772 Area %. For the same molecule, the HPLC purity (area %) at 168 h in data set [3] (40 °C/75% RH, 7 days) worked out at 98.7%; in data set [3] (60 °C/Closed, 7 days), 98.8%. In addition, the “Solid-state stability (in words)” value in data set [3] is recorded as “good solid-state stability”. Besides, the Solubility result in data set [4] (setting [8]) was “<LOQ”; in data set [4] (FaSSIF (pH = 6.49), 24 h, 37 °C, LOQ ~1.0 μg/mL) it was “<LOQ”; in data set [4] (SGF (pH = 1.19), 0.5 h, 37 °C, 30 min) it was 204.753 µg/mL; in data set [4] (SGF (pH = 1.19), 24 h, 37 °C, 1440 min) it was 79.977 µg/mL; in data set [4] (setting [18]), “<LOQ”. Besides, the pH in data set [4] (setting [9]) was determined as 6.45; in data set [4] (setting [10]) it was 6.30; in data set [4] (setting [11]) it was 5.61; in data set [4] (setting [12]), 4.95; in data set [4] (setting [13]) it was 4.96; in data set [4] (setting [14]), 4.90. In addition, the pH is 1.27 in data set [4] (setting [15]); 1.29 in data set [4] (setting [16]); 1.33 in data set [4] (setting [17]); 4.76 in data set [4] (setting [19]); 4.19 in data set [4] (setting [20]); 3.88 in data set [4] (setting [21]). For the same molecule, in data set [4] (SGF medium, 0.5 hours, 37 °C, 30 min), the Maximum solubility is 200 µg/mL. In addition, the “XRPD (24 h)” value in data set [4] (solid form after 24 h in FeSSIF (pH = 5.00)) is on record as “amorphous”. In data set [5], the “In vivo exposure levels” value is “excellent in vivo exposure levels; also recorded: higher animal exposure levels compared to the free base crystal form I”. Further, the “Absorption (in words)” value in data set [5] is given as “easy to absorb”. The “Bioavailability in vivo (in words)” value in data set [5] is recorded as “high bioavailability”. Also, the “Blood drug concentration distribution (in words)” value in data set [5] is given as “good blood drug concentration distribution”. The “Stability in vivo (in words)” value in data set [5] was “good stability in vivo”.
In the case of `CCn1ncc2c(Nc3cc(C)[nH]n3)nc([C@H]3CC[C@](OC)(C(=O)N[C@@H](C)c4cnc(-n5cc(F)cn5)cn4)CC3)nc21` [Free base crystal form I], the AUC0-last in data set [1] (setting [22]) stood at 1172.00 ng·h/mL. Moreover, in data set [1] (setting [22]), the AUCINF was 1197.00 ng·h/mL. The maximum concentration (Cmax) in data set [1] (setting [22]) came to 158.00 ng/mL. Further, the T1/2 in data set [1] (setting [22]) is 2.69 h. Moreover, the Solubility in data set [7] (2-Me-THF) is 11100 to 12500 µg/mL; in data set [7] (Acetone) it was 7100 to 8300 µg/mL; in data set [7] (DCM), 4600 to 5000 µg/mL; in data set [7] (EA), 2200 to 2300 µg/mL; in data set [7] (IPAc), 1500 to 1600 µg/mL; in data set [7] (THF) it was 41700 to 50000 µg/mL. Besides, the Solubility in data set [7] (organic solvent or mixture, ACN, read-out: Solubility) is about 800 µg/mL (≈ 1.36 mM). Moreover, the “Solubility in the remaining solvents (in words)” value in data set [7] (solvents other than DMSO and THF) is given as “poor solubility”.

The record behind these values is US20260327235A1, “CRYSTAL FORM OF PYRIMIDO AZACYCLO COMPOUND, AND PREPARATION METHOD THEREFOR AND USE THEREO” (TYK MEDICINES, INC., priority 2023, published 2026).
